Measurements taken from patent US8952157B2, “Apoptosis-inducing agents for the treatment of cancer and immune and autoimmune diseases” (AbbVie Inc., priority 2008, dated 2015).

Target: GST-Bcl-2 (Homo sapiens (Human), UniProt P10415)
Assay: Time Resolved-Fluorescence Resonance Energy Transfer (TR-FRET) Bcl-2 binding assay
Conditions: GST-Bcl-2 1 nM, F-Bak peptide probe 100 nM, Tb-anti-GST antibody 1 nM; Ki by Wang's equation
Protocol: Determination of the utility of compounds having Formula (I) as binders to and inhibitors of anti-apoptotic Bcl-2 proteins was performed using the Time Resolved-Fluorescence Resonance Energy Transfer (TR-FRET) Assay. Tb-anti-GST antibody was purchased from Invitrogen (Catalog No. PV4216).
(§1) Representative compounds were serially diluted in dimethyl sulfoxide (DMSO) starting at 50 μM (2× starting concentration; 10% DMSO) and 10 μL were transferred into a 384-well plate. The samples are then mixed on a shaker for 1 minute and incubated for an additional 3 hours at room temperature. For each assay, the probe/antibody and protein/probe/antibody were included on each assay plate as negative and positive controls, respectively. Fluorescence was measured on the Envision (Perkin Elmer) using a 340/35 nm excitation filter and 520/525 (F-Bak peptide) and 495/510 nm (Tb-labeled anti-Histidine antibody) emission filters.
as §1, with “The” for “Representative compounds were serially diluted in dimethyl sulfoxide (DMSO) starting at 50 μM (2× starting concentration; 10% DMSO) and 10 μL were transferred into a 384-well plate. The”, “were” for “are”
The inhibition constant (Ki) is the dissociation constant of an enzyme-inhibitor complex or a protein/small molecule complex, wherein the small molecule is inhibiting binding of one protein to another protein. So a large Ki value indicates a low binding affinity and a small Ki value indicates a high binding affinity.

GST-Bcl-2, sequence (P10415 whole entry): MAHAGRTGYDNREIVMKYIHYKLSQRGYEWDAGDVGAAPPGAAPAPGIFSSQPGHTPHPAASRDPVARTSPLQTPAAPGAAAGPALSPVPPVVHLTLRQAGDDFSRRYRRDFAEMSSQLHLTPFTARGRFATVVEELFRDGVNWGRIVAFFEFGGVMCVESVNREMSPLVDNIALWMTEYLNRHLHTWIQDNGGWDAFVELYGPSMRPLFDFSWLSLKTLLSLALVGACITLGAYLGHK

In order of falling Ki:
1. Cc1nc2cc(Oc3cc(N4CCN(Cc5ccccc5-c5ccc(Cl)cc5)CC4)ccc3C(=O)NS(=O)(=O)c3ccc(NCCCN4CCOCC4)c([N+](=O)[O-])c3)ccc2s1 [Example 24, 4-(4-((4′-chloro-1,1′-biphenyl-2-yl)methyl)piperazin-1-yl)-2-((2-methyl-1,3-benzothiazol-5-yl)oxy)-N-((4-((3-morpholin-4-ylpropyl)amino)-3-nitrophenyl)sulfonyl)benzamide]  15 nM
2. CN(C)c1cccc(Oc2cc(N3CCN(Cc4ccccc4-c4ccc(Cl)cc4)CC3)ccc2C(=O)NS(=O)(=O)c2ccc(NCC3CCOCC3)c([N+](=O)[O-])c2)c1 [Example 21, 4-(4-((4′-chloro-1,1′-biphenyl-2-yl)methyl)piperazin-1-yl)-2-(3-(dimethylamino)phenoxy)-N-((3-nitro-4-((tetrahydro-2H-pyran-4-ylmethyl)amino)phenyl)sulfonyl)benzamide]  14.1 nM
3. Cc1nc2ccc(Oc3cc(N4CCN(Cc5ccccc5-c5ccc(Cl)cc5)CC4)ccc3C(=O)NS(=O)(=O)c3ccc(NCC4CCOCC4)c([N+](=O)[O-])c3)cc2s1 [Example 23, 4-(4-((4′-chloro-1,1′-biphenyl-2-yl)methyl)piperazin-1-yl)-2-((2-methyl-1,3-benzothiazol-6-yl)oxy)-N-((3-nitro-4-((tetrahydro-2H-pyran-4-ylmethyl)amino)phenyl)sulfonyl)benzamide]  8.27 nM
4. Cc1nc(C)c(-c2cccc(Oc3cc(N4CCN(Cc5ccccc5-c5ccc(Cl)cc5)CC4)ccc3C(=O)NS(=O)(=O)c3ccc(NCCCN4CCOCC4)c([N+](=O)[O-])c3)c2)s1 [Example 33, 4-(4-((4′-chloro-1,1′-biphenyl-2-yl)methyl)piperazin-1-yl)-2-(3-(2,4-dimethyl-1,3-thiazol-5-yl)phenoxy)-N-((4-((3-morpholin-4-ylpropyl)amino)-3-nitrophenyl)sulfonyl)benzamide]  7.17 nM
5. N#Cc1cccc(Oc2cc(N3CCN(Cc4ccccc4-c4ccc(Cl)cc4)CC3)ccc2C(=O)NS(=O)(=O)c2ccc(NCC3CCOCC3)c([N+](=O)[O-])c2)c1 [Example 22, 4-(4-((4′-chloro-1,1′-biphenyl-2-yl)methyl)piperazin-1-yl)-2-(3-cyanophenoxy)-N-((3-nitro-4-((tetrahydro-2H-pyran-4-ylmethyl)amino)phenyl)sulfonyl)benzamide]  5.46 nM
6. CN(C)C(=O)Cc1ccccc1Oc1cc(N2CCN(Cc3ccccc3-c3ccc(Cl)cc3)CC2)ccc1C(=O)NS(=O)(=O)c1ccc(NCC2CCOCC2)c([N+](=O)[O-])c1 [Example 27, 4-(4-((4′-chloro-1,1′-biphenyl-2-yl)methyl)piperazin-1-yl)-2-(2-(2-(dimethylamino)-2-oxoethyl)phenoxy)-N-((3-nitro-4-((tetrahydro-2H-pyran-4-ylmethyl)amino)phenyl)sulfonyl)benzamide]  2.21 nM
7. CN(C)Cc1ccccc1Oc1cc(N2CCN(Cc3ccccc3-c3ccc(Cl)cc3)CC2)ccc1C(=O)NS(=O)(=O)c1ccc(NCC2CCOCC2)c([N+](=O)[O-])c1 [Example 31, 4-(4-((4′-chloro-1,1′-biphenyl-2-yl)methyl)piperazin-1-yl)-2-(2-((dimethylamino)methyl)phenoxy)-N-((3-nitro-4-((tetrahydro-2H-pyran-4-ylmethyl)amino)phenyl)sulfonyl)benzamide]  2.01 nM
8. Cc1nc2cc(Oc3cc(N4CCN(Cc5ccccc5-c5ccc(Cl)cc5)CC4)ccc3C(=O)NS(=O)(=O)c3ccc(NCCCN(C)C)c([N+](=O)[O-])c3)ccc2s1 [Example 25, 4-(4-((4′-chloro-1,1′-biphenyl-2-yl)methyl)piperazin-1-yl)-N-((4-((3-(dimethylamino)propyl)amino)-3-nitrophenyl)sulfonyl)-2-((2-methyl-1,3-benzothiazol-5-yl)oxy)benzamide]  1.5 nM
9. CN(C)CCCc1ccccc1Oc1cc(N2CCN(Cc3ccccc3-c3ccc(Cl)cc3)CC2)ccc1C(=O)NS(=O)(=O)c1ccc(NCC2CCOCC2)c([N+](=O)[O-])c1 [Example 28, 4-(4-((4′-chloro-1,1′-biphenyl-2-yl)methyl)piperazin-1-yl)-2-(2-(3-(dimethylamino)propyl)phenoxy)-N-((3-nitro-4-((tetrahydro-2H-pyran-4-ylmethyl)amino)phenyl)sulfonyl)benzamide]  1.33 nM
10. CN(C)CCc1ccccc1Oc1cc(N2CCN(Cc3ccccc3-c3ccc(Cl)cc3)CC2)ccc1C(=O)NS(=O)(=O)c1ccc(NCC2CCOCC2)c([N+](=O)[O-])c1 [Example 29, 4-(4-((4′-chloro-1,1′-biphenyl-2-yl)methyl)piperazin-1-yl)-2-(2-(2-(dimethylamino)ethyl)phenoxy)-N-((3-nitro-4-((tetrahydro-2H-pyran-4-ylmethyl)amino)phenyl)sulfonyl)benzamide]  0.903 nM
11. CN(C)C(=O)CCc1ccccc1Oc1cc(N2CCN(Cc3ccccc3-c3ccc(Cl)cc3)CC2)ccc1C(=O)NS(=O)(=O)c1ccc(NCC2CCOCC2)c([N+](=O)[O-])c1 [Example 26, 4-(4-((4′-chloro-1,1′-biphenyl-2-yl)methyl)piperazin-1-yl)-2-(2-(3-(dimethylamino)-3-oxopropyl)phenoxy)-N-((3-nitro-4-((tetrahydro-2H-pyran-4-ylmethyl)amino)phenyl)sulfonyl)benzamide]  0.511 nM
12. CN(C)C(=O)c1ccccc1Oc1cc(N2CCN(Cc3ccccc3-c3ccc(Cl)cc3)CC2)ccc1C(=O)NS(=O)(=O)c1ccc(NCC2CCOCC2)c([N+](=O)[O-])c1 [Example 30, 2-(5-(4-((4′-chlorobiphenyl-2-yl)methyl)piperazin-1-yl)-2-(3-nitro-4-((tetrahydro-2H-pyran-4-yl)methylamino)phenylsulfonylcarbamoyl)phenoxy)-N,N-dimethylbenzamide]  0.071 nM
13. CN1CCC(Nc2ccc(S(=O)(=O)NC(=O)c3ccc(N4CCN(CC5=C(c6ccc(Cl)cc6)CC(C)(C)CC5)CC4)cc3Oc3cccc(Cl)c3)cc2[N+](=O)[O-])CC1 [Example 36, 2-(3-chlorophenoxy)-4-(4-((2-(4-chlorophenyl)-4,4-dimethylcyclohex-1-en-1-yl)methyl)piperazin-1-yl)-N-((4-((1-methylpiperidin-4-yl)amino)-3-nitrophenyl)sulfonyl)benzamide]  0.07 nM
14. CN1CCC(Nc2ccc(S(=O)(=O)NC(=O)c3ccc(N4CCN(CC5=C(c6ccc(Cl)cc6)CC(C)(C)CC5)CC4)cc3Oc3ccccc3Cl)cc2[N+](=O)[O-])CC1 [Example 34, 2-(2-chlorophenoxy)-4-(4-((2-(4-chlorophenyl)-4,4-dimethylcyclohex-1-en-1-yl)methyl)piperazin-1-yl)-N-((4-((1-methylpiperidin-4-yl)amino)-3-nitrophenyl)sulfonyl)benzamide]  0.049 nM
15. CN1CCC(Nc2ccc(S(=O)(=O)NC(=O)c3ccc(N4CCN(CC5=C(c6ccc(Cl)cc6)CC(C)(C)CC5)CC4)cc3Oc3cc(Cl)cc(Cl)c3)cc2[N+](=O)[O-])CC1 [Example 35, 4-(4-((2-(4-chlorophenyl)-4,4-dimethylcyclohex-1-en-1-yl)methyl)piperazin-1-yl)-2-(3,5-dichlorophenoxy)-N-((4-((1-methylpiperidin-4-yl)amino)-3-nitrophenyl)sulfonyl)benzamide]  0.022 nM
16. CN(C)CCOc1cccc(Oc2cc(N3CCN(Cc4ccccc4-c4ccc(Cl)cc4)CC3)ccc2C(=O)NS(=O)(=O)c2ccc(NCC3CCOCC3)c([N+](=O)[O-])c2)c1 [Example 39, 4-(4-((4′-chloro-1,1′-biphenyl-2-yl)methyl)piperazin-1-yl)-2-(3-(2-(dimethylamino)ethoxy)phenoxy)-N-((3-nitro-4-((tetrahydro-2H-pyran-4-ylmethyl)amino)phenyl)sulfonyl)benzamide]  0.019 nM
17. CN1CCC(Nc2ccc(S(=O)(=O)NC(=O)c3ccc(N4CCN(CC5=C(c6ccc(Cl)cc6)CC(C)(C)CC5)CC4)cc3Oc3ccc(N)c(Cl)c3)cc2[N+](=O)[O-])CC1 [Example 40, 2-(4-amino-3-chlorophenoxy)-4-(4-((2-(4-chlorophenyl)-4,4-dimethylcyclohex-1-en-1-yl)methyl)piperazin-1-yl)-N-((4-((1-methylpiperidin-4-yl)amino)-3-nitrophenyl)sulfonyl)benzamide]  0.019 nM
18. CN1CCC(Nc2ccc(S(=O)(=O)NC(=O)c3ccc(N4CCN(CC5=C(c6ccc(Cl)cc6)CC(C)(C)OC5)CC4)cc3Oc3ccccc3Cl)cc2[N+](=O)[O-])CC1 [Example 38, 2-(2-chlorophenoxy)-4-(4-((4-(4-chlorophenyl)-6,6-dimethyl-5,6-dihydro-2H-pyran-3-yl)methyl)piperazin-1-yl)-N-((4-((1-methylpiperidin-4-yl)amino)-3-nitrophenyl)sulfonyl)benzamide]  0.013 nM
19. CN(C)CCOc1ccc(-c2ccc(Cl)cc2)c(CN2CCN(c3ccc(C(=O)NS(=O)(=O)c4ccc(NC5CCN(C)CC5)c([N+](=O)[O-])c4)c(Oc4cccc(Cl)c4)c3)CC2)c1 [Example 37, 4-(4-((4′-chloro-4-(2-(dimethylamino)ethoxy)-1,1′-biphenyl-2-yl)methyl)piperazin-1-yl)-2-(3-chlorophenoxy)-N-((4-((1-methylpiperidin-4-yl)amino)-3-nitrophenyl)sulfonyl)benzamide]  0.005 nM
